{
  "source": "patent US7067551B2",
  "about": "“Deacetylase inhibitors” (Novartis AG, priority 2000, dated 2006)",
  "key": {"[1]": {"experiment": "Body weight change of A549 tumor-bearing athymic mice", "format": "in vivo", "conditions": "41st day, ± SEM", "procedure": "Outbred athymic (nu/nu) female mice (“Hsd:Athymic Nude-nu” from Harlan Sprague Dawley, Indianapolis, Ind.) are anesthetized with Metofane (Mallinckrodt Veterinary, Inc., Mundelein, Ill.), and 100 μL of the cell suspension containing 1×10^7 cells is injected subcutaneously into the right axillary (lateral) region of each animal. Tumors are allowed to grow for about 20 days until a volume of ˜100 mm^3 is achieved. At this point, mice bearing tumors with acceptable morphology and size are sorted into groups of eight for the study. The sorting process produces groups balanced with respect to mean and range of tumor size. Antitumor activity is expressed as % T/C, comparing differences in tumor volumes for treatment group (T) to vehicle control group (C).\nCMD1 is administered intravenously, once daily 5×/week for three weeks, at doses of 10, 25, 50, or 100 mg/kg. The final DMSO concentration is 10%. Each test group has eight mice. Tumors are measured, and individual animal body weights recorded.\nExample B3 repeated except CMD2 is used."}, "[2]": {"tested_on": "HCT116 colon tumor cell line", "experiment": "HCT116 tumor xenograft in athymic mice, antitumor activity", "format": "in vivo", "conditions": "Table B5, HCT116, 50 mg/kg i.v., 34th day, seven mice"}, "HCT116": {"tested_on": "HCT116", "experiment": "Annexin V / propidium iodide staining (apoptosis), fluorescence microscopy", "format": "cell-based, human", "procedure": "(§1) Annexin V binding was used as a marker for the early stages of apoptosis. A549,HCT116 and Normal Dermal Human Fibroblasts (NDHF) cells are treated separately with four compounds (CMD1, CMD2, CMD3 and CMD4) for 24 or 48 hours, stained with annexin V and compared to cells treated similarly with vehicle (DMSO). Cells are examined by fluorescence microscopy. […] Viability is assessed by the counterstain, propidium iodide. Cells detected by red fluorescence are not viable."}, "A549": {"tested_on": "A549", "experiment": "Annexin V / propidium iodide staining (apoptosis), fluorescence microscopy", "format": "cell-based, human", "procedure": "as §1"}, "[3]": {"tested_on": "HCT116 (colon tumor cell)", "experiment": "Monolayer cell growth inhibition, MTS assay", "format": "cell-based", "conditions": "Homo sapiens, HCT-116, HCT116, 72 hours compound treatment, lactate salts", "description": "Cell lines H1299 (human lung carcinoma cell) and HCT116 (colon tumor cell) are obtained from the American Type Culture Collection, Rockville, Md. The cell lines are free of Mycoplasma contamination (Rapid Detection System by Gen-Probe, Inc., San Diego, Calif.) and viral contamination (MAP testing by MA BioServices, Inc., Rockville, Md.). The cell lines are propagated and expanded in RPMI 1640 medium containing 10% heat-inactivated FBS (Life Technologies, Grand Island, N.Y.). Cell expansions for implantation are performed in cell factories (NUNC, purchased from Fisher Scientific, Springfield, N.J.). Cells are harvested at 50–90% confluency, washed once with HBSS (Hank's Balanced Salt Solution) containing 10% FBS, and suspended in 100% HBSS.\nCell proliferation is measured with a commercial MTS kit (Promega, Madision, Wis.) assay using an adaptation of published procedures, for example, that disclosed in Feasibility of drug screening with panels of human tumor cell lines using a microculture tetrazolium assay, Alley M C, et al., Cancer Res. 1988; 48:589–601. Cells are plated in 96-well tissue culture dishes, with top and bottom rows left empty. H1299 and HCT116 cells are suspended in complete media at a density of 5.3×10^3 and 3.6×10^3 cell/mL, respectively, and 190 μl are added per well. Each cell line is added to one half of the plate. Complete medium (200 μL) is added to the top and bottom rows. Twenty-four hours later, 10 μl of MTS solution is added to one of the plates to determine the activity at the time of compound addition (T0). The plate is incubated at 37° C. for 4 hours and the OD490 is measured on a Molecular Devices Thermomax at 490 nm using the Softmax program. The T0 plate serves as a reference for initial activity at the beginning of the experiment.\nFive serial dilutions (1:4) of each compound are made in a 96-deep well plate with the highest concentrations on the edge of plate. Two cell lines are tested with two compounds per plate.0 Ten microliters of each of the five dilutions are added in triplicate and complete medium alone is added to columns six and seven. The plates are incubated at 37° C. for 72 hours. The MTS solution is added (as for the T0 plate) and read four hours later.\nIn order to analyze the data, the average background value (media alone) is subtracted from each experimental well; the triplicate values are averaged for each compound dilution. The following formulas are used to calculate percent growth.\nThe stock solution is diluted with 5% dextrose injection, USP, just prior to dosing."}},
  "note": "pIC50: −log10 of the molar value.",
  "data": [
    {"molecule": "O=C(/C=C/c1ccc(CNCCc2c[nH]c3ccccc23)cc1)NO", "note": "[CMD1, N-hydroxy-3-[4-[[[2-(1H-indol-3-yl)-ethyl]-amino]methyl]phenyl]-2E-2-propenamide]", "values": [
      {"measurement": "Δ % BODY WEIGHT", "setting": "[1]; A549, 10 mg/kg i.v. once daily 5×/week for three weeks", "value": "+1.3 ± 0.3%"},
      {"measurement": "Δ % BODY WEIGHT", "setting": "[1]; A549, 25 mg/kg i.v. once daily 5×/week for three weeks", "value": "−0.9 ± 0.3", "unit": "%"},
      {"measurement": "Δ % BODY WEIGHT", "setting": "[1]; A549, 50 mg/kg i.v. once daily 5×/week for three weeks", "value": "−0.4 ± 0.3", "unit": "%"},
      {"measurement": "Δ % BODY WEIGHT", "setting": "[1]; A549, 100 mg/kg i.v. once daily 5×/week for three weeks", "value": "+0.4 ± 0.3%"},
      {"measurement": "% T/C", "setting": "[2]", "value": 25, "unit": "%"},
      {"measurement": "Δ MEAN TUMOR VOLUME", "setting": "[2]; ± SEM", "value": "186 ± 40", "unit": "mm^3"},
      {"measurement": "cells exhibiting cell surface staining with annexin V", "setting": "HCT116; HCT116, 24 hour exposure", "value": "the majority"},
      {"measurement": "cells staining with annexin V and/or propidium iodide", "setting": "HCT116; HCT116, 48 hour treatment", "value": "the majority"},
      {"measurement": "cells exhibiting cell surface staining with annexin V", "setting": "A549; A549, 24 hour exposure", "value": "A small percentage"},
      {"measurement": "cells staining with annexin V and/or propidium iodide", "setting": "A549; A549, 48 hour treatment", "value": "the majority"},
      {"measurement": "pIC50", "setting": "[3]", "value": 7.52}
    ]}
  ]
}
